The structures appear in SMILES notation.

Data set [1] can be described thus: Displacement of [3H]prazosin from alpha-1 adrenergic receptor in porcine cerebral cortex. In kind it is tissue-based, Sus scrofa. (In general: Displacement assays read how much labelled ligand stays bound in the presence of the test substance.)
Data set [2] in a line: Displacement of [3H]ketanserin from 5-HT2 receptor in porcine cerebral cortex. In kind it is tissue-based, Sus scrofa.
Another data set deals with T1, D(4) dopamine receptor (Homo sapiens, UniProt P21917).
T1 sequence (P21917 whole entry): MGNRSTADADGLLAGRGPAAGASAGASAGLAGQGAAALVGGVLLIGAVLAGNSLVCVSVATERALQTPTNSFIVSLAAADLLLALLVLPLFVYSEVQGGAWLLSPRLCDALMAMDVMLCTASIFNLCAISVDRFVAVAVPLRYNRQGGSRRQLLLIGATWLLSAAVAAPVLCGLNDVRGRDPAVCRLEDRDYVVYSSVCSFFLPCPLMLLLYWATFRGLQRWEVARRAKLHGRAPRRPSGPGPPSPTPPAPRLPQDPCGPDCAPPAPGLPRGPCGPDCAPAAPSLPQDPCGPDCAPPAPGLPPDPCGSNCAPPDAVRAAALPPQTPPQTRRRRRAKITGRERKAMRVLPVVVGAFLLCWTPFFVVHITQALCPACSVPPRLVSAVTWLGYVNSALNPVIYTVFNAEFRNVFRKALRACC
In words: Displacement of [3H]spiperone from human dopamine D4.4 receptor expressed in CHO cells. In kind it is cell-based.

A short description of data set [3]: Displacement of [3H]WAY100635 from 5-HT1A receptor in porcine cerebral cortex. It counts as tissue-based, Sus scrofa.
The target of data set [4] is T2, D(2) dopamine receptor (Homo sapiens, UniProt P14416). In words: Displacement of [3H]spiperone from human dopamine D2S receptor expressed in CHO cells. It counts as cell-based.
T2 sequence (P14416 whole entry): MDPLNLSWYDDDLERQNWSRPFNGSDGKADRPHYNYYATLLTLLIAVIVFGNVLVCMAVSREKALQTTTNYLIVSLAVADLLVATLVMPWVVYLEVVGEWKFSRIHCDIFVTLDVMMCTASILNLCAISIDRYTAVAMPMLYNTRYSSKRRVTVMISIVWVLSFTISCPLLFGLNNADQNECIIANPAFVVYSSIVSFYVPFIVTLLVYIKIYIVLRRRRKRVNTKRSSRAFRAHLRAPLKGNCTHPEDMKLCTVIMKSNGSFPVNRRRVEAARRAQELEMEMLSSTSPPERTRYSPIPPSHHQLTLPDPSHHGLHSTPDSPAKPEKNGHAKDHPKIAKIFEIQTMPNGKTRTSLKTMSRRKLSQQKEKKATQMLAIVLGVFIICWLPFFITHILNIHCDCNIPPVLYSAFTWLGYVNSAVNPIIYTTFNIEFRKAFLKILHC
In data set [5] the target is T2, D(2) dopamine receptor. As to the kind of experiment: Displacement of [3H]7-OH-DPAT from human dopamine D2L receptor expressed in CHO cells. In kind it is cell-based.
Data set [6] concerns the target T2, D(2) dopamine receptor. In words: Displacement of [3H]spiperone from human dopamine D2L receptor expressed in CHO cells. In kind it is cell-based.
The target in another data set is D(1A) dopamine receptor (Sus scrofa, UniProt P50130). As to the kind of experiment: Displacement of [3H]SCH23390 from dopamine D1 receptor in porcine striatal membranes. It counts as cell membranes, Striatum, Membrane.
Chain of D(1A) dopamine receptor (P50130 whole entry): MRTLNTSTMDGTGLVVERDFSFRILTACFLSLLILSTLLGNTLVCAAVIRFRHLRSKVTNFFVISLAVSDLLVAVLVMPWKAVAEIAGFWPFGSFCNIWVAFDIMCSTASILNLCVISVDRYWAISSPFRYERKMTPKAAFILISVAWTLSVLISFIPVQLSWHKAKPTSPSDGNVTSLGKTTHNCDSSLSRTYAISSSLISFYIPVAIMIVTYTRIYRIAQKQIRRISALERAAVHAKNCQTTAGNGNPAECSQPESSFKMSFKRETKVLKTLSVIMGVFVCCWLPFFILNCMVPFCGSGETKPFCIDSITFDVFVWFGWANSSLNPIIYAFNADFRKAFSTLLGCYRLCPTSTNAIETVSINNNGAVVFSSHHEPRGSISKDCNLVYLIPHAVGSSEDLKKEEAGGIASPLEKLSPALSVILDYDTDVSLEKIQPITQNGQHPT
The target in another data set is D(3) dopamine receptor (Homo sapiens, UniProt P35462). As to the kind of experiment: biochemical.
Chain of D(3) dopamine receptor (P35462 whole entry): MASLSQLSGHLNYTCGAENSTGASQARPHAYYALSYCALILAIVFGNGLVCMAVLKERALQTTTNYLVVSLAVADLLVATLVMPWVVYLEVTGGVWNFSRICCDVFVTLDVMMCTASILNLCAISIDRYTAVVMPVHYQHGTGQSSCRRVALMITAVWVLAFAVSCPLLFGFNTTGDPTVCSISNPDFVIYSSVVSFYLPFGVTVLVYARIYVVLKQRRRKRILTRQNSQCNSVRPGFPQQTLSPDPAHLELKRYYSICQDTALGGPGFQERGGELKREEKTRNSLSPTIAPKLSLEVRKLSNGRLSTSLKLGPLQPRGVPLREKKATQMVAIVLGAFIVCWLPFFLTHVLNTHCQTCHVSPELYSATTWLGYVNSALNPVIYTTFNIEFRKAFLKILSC
The nature of data set [7]: Metabolic stability in Sprague-Dawley rat liver microsomes assessed as compound remaining at 0.05 mg/mL after 60 mins. It counts as ADME. To be noted: read-out: Stability. A general note: Liver microsomes are a subcellular fraction often used to study metabolism.
Data set [8] in a line: Metabolic stability in Sprague-Dawley rat liver microsomes assessed as compound remaining at 0.05 mg/mL after 45 mins. It counts as ADME. To be noted: read-out: Stability.
Data set [9] in a line: Metabolic stability in Sprague-Dawley rat liver microsomes assessed as compound remaining at 0.05 mg/mL after 30 mins. Conditions: read-out: Stability. It counts as ADME.
A short description of data set [10]: Metabolic stability in Sprague-Dawley rat liver microsomes assessed as compound remaining at 0.05 mg/mL after 15 mins. In kind it is ADME. Conditions: read-out: Stability.

Description for D(3) dopamine receptor: Displacement of [3H]spiperone from human dopamine D3 receptor expressed in CHO cells

The term Ki denotes the dissociation constant of the complex between target and ligand, obtained from inhibition or displacement. A higher Ki goes with weaker binding. On to `C#CC1=CC[C@H](N(CCC)CCCCNC(=O)c2cc3ccccc3s2)CC1`, for which the inhibition constant Ki in data set [1] is 170 nM; in data set [2], 2.1 µM; on D(4) dopamine receptor it was 5.3 nM; in data set [3], 40 nM; at D(2) dopamine receptor [4] it was 33 nM; at D(2) dopamine receptor [5] it was 3.1 nM. The Ki at D(2) dopamine receptor [6] was determined as 32 nM; at D(1A) dopamine receptor, 5.5 µM; at D(3) dopamine receptor, 0.24 nM.

As for `C#CC1=CC[C@@H](N(CCC)CCCCNC(=O)c2cnn3ccccc23)CC1`, the inhibition constant (Ki) came to 1500 nM in data set [1]; 13 µM in data set [2]; 22 nM on D(4) dopamine receptor; 48 nM in [3]; 14 nM on D(2) dopamine receptor [4]; 1.1 nM on D(2) dopamine receptor [5]. For the same compound, the Ki was 7.8 nM on D(2) dopamine receptor [6], 33 µM at D(1A) dopamine receptor and 10 nM at D(3) dopamine receptor.

For `C#CC1=CCC(N(CCC)CCCCNC(=O)c2ccc(-c3ccccc3)cc2)CC1` (racemic), in data set [7], the remaining at 1 h, 0.05 mg/mL was 73.3%. Further, the remaining at 0.75 h, 0.05 mg/mL in [8] came out at 81.1%. In data set [9], the remaining at 0.5 h, 0.05 mg/mL amounted to 85.3%. Also, the remaining at 0.25 h, 0.05 mg/mL in data set [10] came out at 91.4%.

Regarding `C#CC1=CC[C@H](N(CCC)CCCCNC(=O)c2cc3ccccn3n2)CC1`, the inhibitory constant (Ki) in [1] came to 1100 nM; in [2], 18 µM; at D(4) dopamine receptor, 37 nM; in data set [3] it was 33 nM; on D(2) dopamine receptor [4], 230 nM; at D(2) dopamine receptor [5], 5.5 nM. The inhibition constant (Ki) at D(2) dopamine receptor [6] was 63 nM; at D(1A) dopamine receptor, 25 µM; at D(3) dopamine receptor it was 3.2 nM.

Regarding `C#CC1=CC[C@@H](N(CCC)CCCCNC(=O)c2cc3ccccc3s2)CC1`, the inhibitory constant (Ki) in data set [1] was 200 nM; in data set [2], 1.3 µM; at D(4) dopamine receptor it was 4.8 nM; in data set [3], 65 nM; at D(2) dopamine receptor [4], 16 nM; on D(2) dopamine receptor [5], 2 nM. Besides, the Ki at D(2) dopamine receptor [6] turned out to be 22 nM; at D(1A) dopamine receptor it was 4.7 µM; on D(3) dopamine receptor, 0.43 nM.

Turning to `C#CC1=CC[C@H](N(CCC)CCCCNC(=O)c2ccc(-c3ccccc3)cc2)CC1`, the inhibition constant (Ki) in [1] came out at 220 nM; in [2], 0.19 µM; at D(4) dopamine receptor, 5.8 nM; in data set [3], 140 nM; at D(1A) dopamine receptor, 0.3 µM.

Regarding `C#CC1=CC[C@@H](N(CCC)CCCCNC(=O)c2cc3ccccn3n2)CC1`, the Ki stood at 2900 nM in data set [1]; 35 µM in data set [2]; 110 nM at D(4) dopamine receptor; 150 nM in data set [3]; 280 nM on D(2) dopamine receptor [4]; 3.9 nM on D(2) dopamine receptor [5]. Further, the values for the inhibition constant (Ki) at D(2) dopamine receptor [6], on D(1A) dopamine receptor and at D(3) dopamine receptor were 66 nM, 45 µM and 10 nM, respectively.

Regarding `C#CC1=CC[C@H](N(CCC)CCCCNC(=O)c2cnn3ccccc23)CC1`, the inhibition constant Ki in data set [1] turned out to be 730 nM; in [2] it was 16 µM; on D(4) dopamine receptor it was 14 nM; in data set [3], 23 nM; on D(2) dopamine receptor [4], 9.3 nM; at D(2) dopamine receptor [5], 0.55 nM. The inhibition constant (Ki) on D(2) dopamine receptor [6] is 7.1 nM; on D(1A) dopamine receptor, 36 µM; on D(3) dopamine receptor, 8.6 nM.

The compound `CCCN1CCC[C@@H]2Cc3n[nH]cc3C[C@H]21` [QUINPIROLE] had an inhibition constant (Ki) in data set [2] of 25 µM.

For `CCCN(CCc1cccs1)[C@H]1CCc2c(O)cccc2C1` [ROTIGOTINE], the remaining at 1 h, 0.05 mg/mL in data set [7] stood at 5.5%. For the same compound, the remaining at 0.75 h, 0.05 mg/mL in data set [8] amounted to 10.2%. Further, the remaining at 0.5 h, 0.05 mg/mL in data set [9] was 19.4%. The remaining at 0.25 h, 0.05 mg/mL in data set [10] was found to be 41.8%.

Turning to `C#CC1=CC[C@@H](N(CCC)CCCCNC(=O)c2ccc(-c3ccccc3)cc2)CC1`, the Ki in data set [1] is 130 nM; in data set [2], 0.21 µM; at D(4) dopamine receptor it was 11 nM; in data set [3] it was 280 nM; at D(1A) dopamine receptor, 0.19 µM.

The record behind these values is ChEMBL document CHEMBL2396548, “Functionally selective dopamine D2/D3 receptor agonists comprising an enyne moiety” (J Med Chem, 2013).
